These molecules were tested against T1, Receptor-interacting protein kinase 1 (RIPK1) (Homo sapiens, UniProt Q13546) (assay: cell-based). Conditions: HEK293T-RIPK1-HiBiT cells; read-out: Dmax (HEK293T-RIPK1-HiBiT cell line).
T1 construct: with VHL
Design: HiBiT luminescence of CRISPR-tagged endogenous RIPK1 (C-terminal HiBiT) after PROTAC treatment; degradation DC50 and Dmax
Method: Screening of RIPK1 Degraders Using HEK-293T-RIPK1-HiBiT cells  3 Primary screening RIPK1 degraders using HEK293T-RIPK1-HiBiT cell line. Cells were seeded in 96-well plates and treated with test compounds for 20 h. After treatment, Bioluminescence signal reflecting RIPK1 protein level was generated by adding Nano-Glo HiBiT detect reagent. A) Bioluminescence signal was visualized using Bio-Rad ChemiDoc MP Imaging system. The grayscale intensity is positively correlated with protein abundance. B) Relative luminescence Units (RLUs) in each well was measured using CLARIOstar plate reader. DC50 values were calculated by nonlinear regression analysis in GraphPad Prism software. DC50 = dose that reduces RIPK1 protein by 50%. D max = maximum reduction of RIPK1 protein achieved by the compound. Guide RNA oligos for RIPK1 (foward: CACCGA-GCCCAT-CCAGGG-TTAGTTC. reverse: AAACGA-ACTAAC-CCTGGA-TGGGCTC) were cloned into Cas9 expression plasmid (pSpCas9–2A-GFP purchased from Addgene), and cotransfected with donor DNA oligo using FuGENE HD Transfection Reagent (Promega). GFP positive cells were FACS sorted and single clones were screened for HiBiT signal by Nano Glo HiBiT Lytic Detection System (Promega).

T1 sequence (Q13546 whole entry): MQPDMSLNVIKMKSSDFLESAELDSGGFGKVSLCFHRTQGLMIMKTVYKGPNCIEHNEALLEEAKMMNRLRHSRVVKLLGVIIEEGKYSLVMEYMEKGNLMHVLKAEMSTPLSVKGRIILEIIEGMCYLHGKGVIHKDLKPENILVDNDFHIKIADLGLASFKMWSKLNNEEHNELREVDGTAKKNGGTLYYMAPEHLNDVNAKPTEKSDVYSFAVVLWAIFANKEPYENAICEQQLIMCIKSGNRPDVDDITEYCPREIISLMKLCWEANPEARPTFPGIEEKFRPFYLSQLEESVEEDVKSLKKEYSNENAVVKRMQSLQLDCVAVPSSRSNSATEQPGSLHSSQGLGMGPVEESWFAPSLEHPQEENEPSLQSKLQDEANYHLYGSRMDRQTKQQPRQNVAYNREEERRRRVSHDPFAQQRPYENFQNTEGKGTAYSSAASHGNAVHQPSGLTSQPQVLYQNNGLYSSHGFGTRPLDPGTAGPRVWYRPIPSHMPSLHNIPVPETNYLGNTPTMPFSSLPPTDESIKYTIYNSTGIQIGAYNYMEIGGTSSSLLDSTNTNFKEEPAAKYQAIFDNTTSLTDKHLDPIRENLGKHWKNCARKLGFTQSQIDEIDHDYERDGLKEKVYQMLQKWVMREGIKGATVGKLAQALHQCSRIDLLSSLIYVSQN
T1 sequence (P40337 whole entry partner): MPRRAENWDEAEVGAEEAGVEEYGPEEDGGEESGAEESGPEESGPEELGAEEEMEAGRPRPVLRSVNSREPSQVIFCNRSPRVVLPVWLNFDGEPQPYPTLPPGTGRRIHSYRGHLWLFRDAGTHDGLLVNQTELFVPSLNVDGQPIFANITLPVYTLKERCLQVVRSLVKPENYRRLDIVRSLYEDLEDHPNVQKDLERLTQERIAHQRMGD

| SMILES | Dmax |
| --- | --- |
| Cc1ncsc1-c1ccc([C@H](C)NC(=O)[C@@H]2C[C@@H](O)CN2C(=O)[C@@H](NC(=O)C2CCN(CCNC(=O)Cn3cc(-c4cnc(N)c5c(-c6ccc7c(c6)CCN7C(=O)Cc6ccccc6)csc45)cn3)CC2)C(C)(C)C)cc1 [225-6] | 34% |
| Cc1ncsc1-c1ccc([C@H](C)NC(=O)[C@@H]2C[C@@H](O)CN2C(=O)[C@@H](NC(=O)C2CCN(CCCNC(=O)Cn3cc(-c4cnc(N)c5c(-c6ccc7c(c6)CCN7C(=O)Cc6ccccc6)csc45)cn3)CC2)C(C)(C)C)cc1 [225-7] | 22% |
| Cc1ncsc1-c1ccc([C@H](C)NC(=O)[C@@H]2C[C@@H](O)CN2C(=O)[C@@H](NC(=O)CCCCCN2CCN(C(=O)Cn3cc(-c4cnc(N)c5c(-c6ccc7c(c6)CCN7C(=O)Cc6ccccc6)csc45)cn3)CC2)C(C)(C)C)cc1 [229-1] | 58% |
| Cc1ncsc1-c1ccc([C@H](C)NC(=O)[C@@H]2C[C@@H](O)CN2C(=O)[C@@H](NC(=O)CCCCNC2CCN(C(=O)Cn3cc(-c4cnc(N)c5c(-c6ccc7c(c6)CCN7C(=O)Cc6ccccc6)csc45)cn3)CC2)C(C)(C)C)cc1 [229-2] | 9% |
| Cc1ncsc1-c1ccc([C@H](C)NC(=O)[C@@H]2C[C@@H](O)CN2C(=O)[C@@H](NC(=O)CCN2CCN(C(=O)CNC(=O)Cn3cc(-c4cnc(N)c5c(-c6ccc7c(c6)CCN7C(=O)Cc6ccccc6)csc45)cn3)CC2)C(C)(C)C)cc1 [229-3] | 5% |
| Cc1ncsc1-c1ccc([C@H](C)NC(=O)[C@@H]2C[C@@H](O)CN2C(=O)[C@@H](NC(=O)CCN2CCN(CCNC(=O)Cn3cc(-c4cnc(N)c5c(-c6ccc7c(c6)CCN7C(=O)Cc6ccccc6)csc45)cn3)CC2)C(C)(C)C)cc1 [229-4] | 25% |
